Data set [1] can be described thus: Selectivity index, ratio of CC50 for human MT4 cells to EC50 for HIV1 RES056 harboring reverse transcriptase K103N/Y181C mutant. The settings on record: read-out: Ratio CC50/EC50. The data set is classed as toxicity, cell-based.
For data set [2], the system named is Human immunodeficiency virus 2. In words: Antiviral activity against HIV2 ROD infected in human MT4 cells assessed as inhibition of virus-induced cytopathicity by MTT assay. The data set is classed as functional, organism-based. The settings on record: Human immunodeficiency virus 2, ISOLATE ROD.
Data set [3] is described as follows: Cytotoxicity against human MT4 cells by MTT assay. The data set is classed as cell-based. A general note: Formazan colour is commonly taken as a measure of viable cells.
In data set [4] the test system is Human immunodeficiency virus 1. Briefly: Antiviral activity against HIV1 RES056 harboring reverse transcriptase K103N/Y181C mutant infected in human MT4 cells assessed as inhibition of virus-induced cytopathicity by MTT assay. The settings on record: Human immunodeficiency virus 1, RES056, MT4. The data set is classed as functional, organism-based. (Cytopathic effects are the visible damage that an infection or toxin causes in cultured cells.)

Data set [5] can be described thus: Selectivity index, ratio of CC50 for human MT4 cells to EC50 for HIV2 ROD. The settings on record: read-out: Ratio CC50/EC50. The data set is classed as toxicity, cell-based.
Data set [6] concerns Human immunodeficiency virus 1. In words: Antiviral activity against HIV1 3B infected in human MT4 cells assessed as inhibition of virus-induced cytopathicity by MTT assay. The data set is classed as functional, organism-based. The settings on record: Human immunodeficiency virus 1, 3B.
The nature of data set [7]: Selectivity index, ratio of CC50 for human MT4 cells to EC50 for HIV1 3B. The data set is classed as toxicity, cell-based. The settings on record: read-out: Ratio CC50/EC50.
Data set [8] has as its target Human immunodeficiency virus type 1 reverse transcriptase (Human immunodeficiency virus 1, UniProt Q72547). Briefly: Inhibition of HIV1 reverse transcriptase assessed as biotin-dUTP incorporation into enzyme using […] as template primer by colorimetric analysis.
Data set [9] has as its system Human immunodeficiency virus 1. Briefly: Ratio of nevirapine EC50 to compound EC50 for HIV1 3B. The data set is classed as functional.
Data set [10] concerns Human immunodeficiency virus 1. Briefly: Ratio of dideoxycytidine EC50 to compound EC50 for HIV1 3B. The data set is classed as functional.
The subject of data set [11] is Human immunodeficiency virus 1. In words: Ratio of delavirdine EC50 to compound EC50 for HIV1 3B. The data set is classed as functional.

Molecules are shown by their SMILES. A value given as a limit tells only on which side of the number the result lay.

As for `O=C(CSc1nncnc1-c1cccc2ccccc12)Nc1ccccc1`, the results for the selectivity ratio in [1], in data set [5] and in [7] were under 1, under 1 and 101, respectively. Further, the EC50 (in general, the concentration needed to bring the measured effect to its halfway point) was over 154 µM in data set [2], over 154 µM in [4] and 1.53 µM in [6]. Further, the midpoint of cytotoxicity in data set [3], the CC50, lay at 154 µM.
Regarding `Cc1ccc(NC(=O)CSc2nncnc2-c2ccccc2Cl)c([N+](=O)[O-])c1`, the selectivity ratio is at most 1 in [1], under 1 in data set [5] and 3330 in [7]. Besides, the EC50 in [2] was over 158 µM; in [4], at least 22 µM; in data set [6], 0.048 µM. Half-maximal cytotoxicity in data set [3] (CC50) was put at 158 µM. Moreover, in data set [8], the IC50 (in general, the point on the concentration scale where inhibition reaches its midpoint) worked out at 18 µM.
Turning to `O=C(CSc1nncnc1-c1ccccc1Cl)Nc1ccccc1`, the selectivity ratio in data set [1] is under 1; in data set [5], under 1; in data set [7] it was 296. The EC50 in data set [2] was over 127 µM; in data set [4], over 127 µM; in data set [6], 0.42 µM. Besides, the CC50 (in general, the concentration that lowers cell viability or growth by half) in [3] turned out to be 127 µM.
Take `Cc1ccc(NC(=O)CSc2nncnc2-c2cccc3ccccc23)c(Br)c1`: the selectivity ratio in data set [1] is 4; in data set [5], under 1; in data set [7], 852. For the same compound, the EC50 in data set [2] was over 166 µM; in data set [4], 46 µM; in data set [6], 0.195 µM. In addition, the midpoint of cytotoxicity in data set [3], the CC50, lay at 166 µM.
On to `O=C(CSc1nncnc1-c1cccc2ccccc12)N1CCc2ccccc2C1`, for which the selectivity ratio in data set [1] is under 1; in data set [5], under 1; in data set [7] it was 17. Also, the EC50 was over 13 µM in [2], over 13 µM in [4] and 0.751 µM in data set [6]. In [3], the CC50 is 13 µM.
Consider `CC(=O)c1ccc(NC(=O)CSc2nncnc2-c2cccc3ccccc23)c(Br)c1`, for which the results for the selectivity ratio in data set [1], in [5] and in data set [7] were 31, under 1 and 2680, respectively. Besides, the EC50 is over 133 µM in data set [2], 4.3 µM in data set [4] and 0.051 µM in [6]. In [3], the midpoint of cytotoxicity, the CC50, lay at 133 µM.
Consider `Cc1ccc(NC(=O)CSc2nncnc2-c2cccc3ccccc23)c([N+](=O)[O-])c1`, for which the selectivity ratio in [1] is 28; in data set [5], under 1; in [7] it was 3170. In addition, the values for the EC50 in data set [2], in [4] and in [6] were over 147 µM, 5.2 µM and 0.046 µM, respectively. Also, in [3], the CC50 turned out to be 147 µM.
For `O=C(CSc1nncnc1-c1ccccc1Cl)Nc1ccccc1[N+](=O)[O-]`, the selectivity ratio is at most 6 in [1], under 1 in data set [5] and 2160 in [7]. For the same compound, the values for the concentration for a half-maximal effect (EC50) in data set [2], in data set [4] and in data set [6] were over 63 µM, at least 11 µM and 0.023 µM, respectively. The cytotoxic concentration (CC50) in [3] is 63 µM. Also, the IC50 in data set [8] came to 6.5 µM.
Regarding `Cc1ccccc1NC(=O)CSc1nncnc1-c1ccccc1Cl`, the figures for the selectivity ratio in data set [1], in data set [5] and in [7] were under 1, under 1 and 465, respectively. Further, the values for the EC50 in data set [2], in [4] and in data set [6] were over 142 µM, over 142 µM and 0.297 µM, respectively. The CC50 in data set [3] was 142 µM.
As for `NS(=O)(=O)c1ccc(NC(=O)CSc2nncnc2-c2cccc3ccccc23)c(Br)c1`, the selectivity ratio is 7 in data set [1], under 1 in data set [5] and 1290 in data set [7]. For the same compound, the EC50 in [2] is over 23 µM; in [4] it was 3.3 µM; in [6], 0.018 µM. Besides, the “Ratio EC50” value in data set [9] worked out at 11; in data set [10], 78; in data set [11] it was 2. The CC50 in data set [3] stood at 23 µM.
As to `O=C(CSc1nncnc1-c1cccc2ccccc12)Nc1ccccc1Br`, the selectivity ratio in data set [1] is at most 2; in data set [5] it was under 1; in data set [7], 503. Moreover, the EC50 in [2] was over 87 µM; in data set [4] it was at least 43 µM; in data set [6] it was 0.173 µM. The same compound registered a CC50 in data set [3] of 87 µM.
For `CCOC(=O)c1ccc(NC(=O)CSc2nncnc2-c2cccc3ccccc23)c(Cl)c1`, the results for the selectivity ratio in data set [1], in data set [5] and in data set [7] were under 1, under 1 and 729, respectively. In addition, the concentration for a half-maximal effect (EC50) is over 150 µM in data set [2], over 150 µM in data set [4] and 0.205 µM in data set [6]. Also, in [3], half-maximal cytotoxicity (CC50) was put at 150 µM.
